Our source for the MIC values is ChEMBL document CHEMBL6182832, “Design and synthesis of coumarin-based amphoteric antimicrobials with biofilm interference and immunoregulation effects” (RSC Med Chem, 2025).

≈ marks a conversion by molar mass, not a printed value.

Common to all, as to type: functional
Holding throughout (conditions): time 16-24 hrs, read-out: MIC100

In assay [1] the test system is Staphylococcus aureus. As to the kind of experiment: Antibacterial activity against clinically isolated methicillin-resistant Staphylococcus aureus assessed as inhibition of bacterial growth measured after 16 to 24 hrs by broth microdilution method. (In general: Dilution methods test growth across graded concentrations, often in twofold steps.)
The subject of assay [2] is Escherichia coli. The assay can be described thus: Antibacterial activity against clinically isolated Escherichia coli ATCC25922 assessed as inhibition of bacterial growth measured after 16 to 24 hrs by broth microdilution method.
Assay [3] relates to Escherichia coli. The assay can be described thus: Antibacterial activity against clinically isolated Escherichia coli DE17 assessed as inhibition of bacterial growth measured after 16 to 24 hrs by broth microdilution method.
For assay [4], the system named is Staphylococcus aureus. As to the kind of experiment: Antibacterial activity against clinically isolated Staphylococcus aureus ATCC29213 assessed as inhibition of bacterial growth measured after 16 to 24 hrs by broth microdilution method.

`CCCCN(CCCC)CCCCOc1ccc2ccc(=O)oc2c1`: the MIC in assay [1], in assay [2], in assay [3] and in assay [4] was greater than 256 µg/mL each time.

Regarding `CCN(CC)CCCCCCCCOc1cc(=O)oc2ccccc12`, the MIC in assay [1] is 4 µg/mL (≈ 11.6 µM); in assay [2] it was greater than 256 µg/mL; in assay [3], greater than 256 µg/mL; in assay [4], 64 µg/mL (≈ 185 µM).

For `CCN(CC)CCCCCCCCOc1ccc2ccc(=O)oc2c1`, the MIC in assay [1] is 64 µg/mL (≈ 185 µM); in assay [2] it was greater than 256 µg/mL; in assay [3], greater than 256 µg/mL; in assay [4], 64 µg/mL (≈ 185 µM).

As to `CN(C)CCCCCCCCCCCCOc1ccc2ccc(=O)oc2c1`, the MIC is 4 µg/mL (≈ 10.7 µM) in assay [1], greater than 256 µg/mL in assay [2], greater than 256 µg/mL in assay [3] and 16 µg/mL (≈ 42.8 µM) in assay [4].

As for `CCCN(CCC)CCCCOc1cc(=O)oc2ccccc12`, the MIC in assay [1], in assay [2], in assay [3] and in assay [4] was greater than 256 µg/mL throughout.

Consider `CCN(CC)CCCCOc1cc(=O)oc2ccccc12`, for which the MIC in assay [1], in assay [2], in assay [3] and in assay [4] was greater than 256 µg/mL in each case.

`CCCCN(CCCC)CCCCCCCCOc1cc(=O)oc2ccccc12`: the MIC in assay [1] is 32 µg/mL (≈ 79.7 µM); in assay [2], greater than 256 µg/mL; in assay [3], greater than 256 µg/mL; in assay [4] it was 16 µg/mL (≈ 39.8 µM).

Regarding `CCCCN(CCCC)CCCCOc1cc(=O)oc2ccccc12`, the MIC is greater than 256 µg/mL in assay [1], greater than 256 µg/mL in assay [2], greater than 256 µg/mL in assay [3] and 256 µg/mL (≈ 741 µM) in assay [4].

Consider `CCCN(CCC)CCCCCCCCOc1ccc2ccc(=O)oc2c1`, for which the MIC was 32 µg/mL (≈ 85.7 µM) in assay [1], greater than 256 µg/mL in assay [2], greater than 256 µg/mL in assay [3] and 32 µg/mL (≈ 85.7 µM) in assay [4].

Turning to `CN(C)CCCCOc1ccc2ccc(=O)oc2c1`, the MIC in assay [1], in assay [2], in assay [3] and in assay [4] was greater than 256 µg/mL throughout.

As to `CCCN(CCC)CCCCOc1ccc2ccc(=O)oc2c1`, the MIC in assay [1], in assay [2], in assay [3] and in assay [4] was greater than 256 µg/mL each time.

Consider `CCCN(CCC)CCCCCCCCCCCCOc1cc(=O)oc2ccccc12`, for which the MIC in assay [1] is 2 µg/mL (≈ 4.66 µM); in assay [2] it was greater than 256 µg/mL; in assay [3], greater than 256 µg/mL; in assay [4], 4 µg/mL (≈ 9.31 µM).

On to `CCCCN(CCCC)CCCCCCCCOc1ccc2ccc(=O)oc2c1`, for which the MIC is 32 µg/mL (≈ 79.7 µM) in assay [1], greater than 256 µg/mL in assay [2], greater than 256 µg/mL in assay [3] and 16 µg/mL (≈ 39.8 µM) in assay [4].

Consider `CCN1CCN(c2cc3c(cc2F)c(=O)c(C(=O)O)cn3C2CC2)CC1` [ENROFLOXACIN], for which the MIC in assay [1] was 32 µg/mL (≈ 89 µM); in assay [2], 0.031 µg/mL (≈ 0.0863 µM); in assay [3], 0.031 µg/mL (≈ 0.0863 µM); in assay [4], 0.062 µg/mL (≈ 0.173 µM).

Consider `CCCN(CCC)CCCCCCCCCCCCOc1ccc2ccc(=O)oc2c1`, for which the MIC in assay [1] is 4 µg/mL (≈ 9.31 µM); in assay [2], greater than 256 µg/mL; in assay [3] it was greater than 256 µg/mL; in assay [4] it was 8 µg/mL (≈ 18.6 µM).

For `CN(C)CCCCOc1cc(=O)oc2ccccc12`, the MIC in assay [1], in assay [2], in assay [3] and in assay [4] was greater than 256 µg/mL each time.

Consider `CN(C)CCCCCCCCOc1cc(=O)oc2ccccc12`, for which the MIC in assay [1] is 64 µg/mL (≈ 202 µM); in assay [2], greater than 256 µg/mL; in assay [3], greater than 256 µg/mL; in assay [4] it was 32 µg/mL (≈ 101 µM).

Consider `CCCN(CCC)CCCCCCCCOc1cc(=O)oc2ccccc12`, for which the MIC was 32 µg/mL (≈ 85.7 µM) in assay [1], greater than 256 µg/mL in assay [2], greater than 256 µg/mL in assay [3] and 16 µg/mL (≈ 42.8 µM) in assay [4].

As for `CCCCN(CCCC)CCCCCCCCCCCCOc1ccc2ccc(=O)oc2c1`, the MIC was 4 µg/mL (≈ 8.74 µM) in assay [1], greater than 256 µg/mL in assay [2], greater than 256 µg/mL in assay [3] and 1 µg/mL (≈ 2.18 µM) in assay [4].

For the molecule `CN(C)CCCCCCCCOc1ccc2ccc(=O)oc2c1`, the MIC in assay [1] was 64 µg/mL (≈ 202 µM); in assay [2], greater than 256 µg/mL; in assay [3] it was greater than 256 µg/mL; in assay [4], greater than 128 µg/mL.
